Literature values in patent publication US12569628B2, “Delivery of medicinal gas in a liquid medium” (Third Pole, Inc., priority 2022, dated 2026).
Where two headings read alike, the source gives them in different places.

Tests used:
[1] = test system: immune system; conditions: low concentrations

[N]=O [NO, nitric oxide]
Henry's law constant kH (NO in alcohol): approximately 6.65×10^−5 mol/m^3 Pa
Henry's law constant kH (NO in water): 1.9×10^−5 mol/m^3 Pa
concentration at which NO stimulates the immune system [1]: 10^−12 to 10^−9 M
